Assay [1] relates to human colorectal cancer cell line HCT-8 cells. The experiment in a line: Sensor device response to depolarization induced by KCl. The format is cell-based. The procedure:
(§1) In the present example, the sensor device 200 shown in FIG. 2 was used for detection, wherein the distance between the response electrode of the sensor device and the gate end: 65 μm; and the area of the detection region: 10×60 μm^2. Moreover, a specific aptamer of a human colorectal cancer cell line HCT-8 cell was bonded to the response electrode of the sensor device.
(§2) In the present embodiment, source and drain properties were measured and recorded using an Agilent B1530/B1500A semiconductor parameter analyzer. Operating conditions: VD=2.5 V; Vg=2 V; pulse duration=50 μs. The change in source current before and after a gate bias is applied is defined as the current gain.
In the present embodiment, human colorectal cancer cell line HCT-8 cells were used as the target cells. The HCT-8 cells were cultured in an RPMI-1640 cell culture medium (Invitrogen Co., USA). During a subsequent electrical measurement, the HCT-8 cells were suspended in a Hank balanced salt solution having calcium ions and magnesium ions (hereinafter HBSS w/Ca&Mg), a Hank balanced salt solution without calcium ions and magnesium ions (hereinafter HBSS w/o Ca&Mg), or a Hank balanced salt solution having calcium ions (hereinafter HBSS w/Ca) to prepare a test solution. In the Hank balanced salt solution having calcium ions and magnesium ions (HBSS w/Ca&Mg), the calcium ions were 1.2 mM and the magnesium ions are 0.8 mM. […]

For assay [2] the test system is unchanged. The experiment in a line: Cadmium block of calcium channels (sensor device response). The format is cell-based. The procedure:
as §1, §2
In the present embodiment, human colorectal cancer cell line HCT-8 cells were used as the target cells. The HCT-8 cells were cultured in an RPMI-1640 cell culture medium (Invitrogen Co., USA). […]
In experimental example 3, HBSS w/Ca and HBSS w/Ca containing different cadmium ion concentrations (5 uM, 10 uM, 20 uM, 50 uM, and 100 uM) are used as reference solutions, and the baselines of the sensor device were calculated using the reference solutions. […]

Molecules are shown by their SMILES.

As to `[Cl-].[K+]` [KCl], the “value of the detection current (second current gain minus first current gain, Δ current gain)” value in assay [1] (KCl concentration of 5 mM in HBSS w/Ca&Mg, cells have polarized potential) is reported as “positive”; in assay [1] (KCl concentration of 10 mM to 30 mM in HBSS w/Ca&Mg, cells depolarized), “negative”.

Regarding `[Cd+2]` [cadmium ion], the “value of the detection current (Δ current gain)” value in assay [2] (cadmium concentration further increased from 20 μM to 100 μM in HBSS w/Ca, cells depolarized) is listed as “negative”. For the same molecule, in assay [2] (cadmium ion concentrations of 10 μM and 20 μM in HBSS w/Ca, cells repolarized), the “detection current (Δ current gain)” value was “positive”.
